Measured values taken from patent publication US20220299513A1, “IRF2 AS A PROGNOSTIC BIOMARKER AND TARGET FOR AUGMENTING IMMUNOTHERAPY” (University of Massachusetts, priority 2019, published 2022).

How the values were obtained:
[1] = tested on: surface MHC-I on IRF2-KO DC3.2; assay: Surface MHC-I on IRF2-KO DC3.2 after interferon stimulation (flow cytometry); format: cell-based, mouse
Experimental: (§1) FIGS. 5A-E. IRF2-IRF1 balance. (A) Normalized MFI of surface MHC I and PD-L1 levels on the indicated single or double (IRF1+IRF2, double knock out (DKO)) DC3.2 knockout lines after overnight incubation with either media alone or 2 ng/mL IFNγ; bars represent mean+SEM (N≥3); (B) Western blot for IRF1 and IRF2 (and β-actin as loading control) in the DC3.2 knockout lines in the absence or presence of 2 ng/mL IFNγ for the durations indicated; (C) ChIP-qPCR of DC3.2 WT cells stimulated with ±2 ng/mL IFNγ for 2 hrs for TAP2 (top), ERAP1 (middle), or PD-L1 (bottom) DNA with rabbit anti-IRF2 IgG, rabbit anti-IRF1 IgG, or normal rabbit IgG (control). Bars represent mean +SEM fold enrichment (2^^-ΔCt) over the normal rabbit IgG control IP (N=2); (d, e) Heatmap of genes differentially expressed between the DC knockout lines (D) at baseline or (E) after stimulation with ±2 ng/mL IFNγ for 2 hrs. For clarity, only a few genes are shown. Statistical analysis by two-tailed ratio paired t-tests. *p<0.05, **p<0.01, ***p<0.001, ****p<0.0001, ns=not significant.
FIGS. 10A-B. (A) Normalized MFI of surface MHC I and PD-L1 levels on DC3.2 stable knockout lines after overnight incubation with 5,000 U/mL IFNα; bars represent mean+SEM (N=3). Statistical analysis by two-tailed ratio paired t-tests. […]

[2] = tested on: surface MHC-I on A549 cells; assay: Surface MHC-I on IFNγ-stimulated A549 (flow cytometry); format: cell-based, human; settings: overnight IFNγ stimulation
Source text: (§2) FIGS. 6A-J. IRF2 and cancer. (A) Differential IRF2 expression in tumor and normal tissue from patients with the indicated cancer types (TCGA abbreviations), as queried from TIMER^29; (B) IRF2 mRNA expression in patient NSCLC specimens scored as PD-L1 low (1-50%) or high (>50%) by immunohistochemistry. IRF2 mRNA expression was normalized to GAPDH mRNA expression in each lung specimen and then IRF2 expression across specimens was compared by calculating fold changes over the lowest IRF2-expressing specimen, which was set equal to 1. Statistical analysis by Mann-Whitney U test, **p<0.01; (C) TAP2 (top) and ERAP1 (bottom) mRNA correlations with IRF2 mRNA in NSCLC specimens. Linear regression models shown with R^2 for goodness of fit. (D-E) Geometric MFI of surface MHC I (left) and PD-L1 (right) on (D) unstimulated or (E) overnight IFNγ-stimulated A549 lines knocked out for IRF2 (“IRF2 KO”) or control (“WT”) or overexpressing IRF2 or empty vector (EV) as control. Bars represent mean +SEM (N=3). Statistical analysis by two-tailed ratio paired t-tests. *p<0.05, **p<0.01, ***p<0.001; (F) Geometric MFI of surface MHC-I and PD-L1 on unstimulated or IFNγ-stimulated human breast carcinoma (BT20 and MCF7) lines knocked out for IRF2 (“IRF2 KO”) or control (“WT”). […] After 4 hours, specific killing was quantified by flow cytometry. […]

[3] = tested on: surface PD-L1 on A549 cells; assay: Surface PD-L1 on IFNγ-stimulated A549 (flow cytometry); format: cell-based, human; settings: overnight IFNγ stimulation
Source text: as §2

[4] = tested on: PD-L1 promoter in DC3.2 WT cells; assay: ChIP-qPCR of IRF1/IRF2 binding to the PD-L1 promoter after IFNγ stimulation; format: cell-based, mouse; settings: 2 ng/mL IFNγ for 2 hrs
Experimental: as §1
It is well-established that IRF1 can promote IFNγ-inducible activation of PD-L1^27,28. […]
ChIP procedure generally followed the Thermo Fisher ChIP protocol. […] Chromatin was sheared by sonication for 20 min and fragment size (˜300 bp) was determined by gel electrophoresis. […]

[5] = tested on: IRF2 mRNA in F221 murine sarcoma cells; assay: IRF2 mRNA levels by qPCR in drug-treated F221 cells; format: cell-based; settings: Vorinostat 1 uM or 5 uM, Decitabine 5 uM, 24 hrs, vs DMSO control
Experimental: (§3) FIGS. 13A-B. (A) IRF2 & TAP2 mRNA levels, and MHC I surface protein levels in […] murine sarcoma cells treated with Vorinostat (1 uM or 5 uM), Decitabine (5 uM), or control diluent (DMSO) with no drug; (B) surface expression of MHC I on […] MCA-sarcoma cells treated with Vorinostat (5 uM) and/or Decitabine (5 uM). RNA was extracted from cell lines using the RNeasy kit (Qiagen) or from formalin-fixed paraffin-embedded non-small cell lung cancers using the RNeasy FFPE kit (Qiagen) and reverse transcribed to cDNA using EcoDry pre-mix random hexamers (Clontech). 50 ng cDNA were used per well (done in triplicate) with indicated TaqMan probes (Applied Biosystems), according to the manufacturer's instructions. The TaqMan probes used were as follows: We tested two epigenetic modifiers on an IRF2low, MHC I low murine cancer cell line ([…] MCA-sarcoma). […] murine sarcoma cells were treated with Vorinostat (1 uM or 5 uM), Decitabine (5 uM), or control diluent (DMSO) with no drug for 24 hrs and then assayed for IRF2 and TAP2 mRNA levels by qPCR and MHC I protein levels by flow cytometry.

[6] = tested on: TAP2 mRNA in F221 murine sarcoma cells; assay: TAP2 mRNA levels by qPCR in drug-treated F221 cells; format: cell-based; settings: Vorinostat 1 uM or 5 uM, Decitabine 5 uM, 24 hrs, vs DMSO control
Experimental: as §3

[7] = tested on: surface MHC I (H-2Kb) on F221 MCA-sarcoma cells; assay: Surface MHC I protein levels by flow cytometry in drug-treated F221 cells; format: cell-based; settings: F221 murine sarcoma cells; Vorinostat 1 uM or 5 uM, Decitabine 5 uM; 24 hrs; vs DMSO control
Source text: Where indicated, mouse cells were blocked with 2.4G2 and stained for surface MHC class I levels with anti-K^b-APC (eBioscience, AF6-88.5.5.3), MHC class II levels with anti-I^A/I^E-PECy7 (BioLegend, M5/114.15.2), PD-L1 levels with anti-PD-L1-PE (BioLegend, 10F.9G2), or with isotype controls (eBioscience mouse IgG2a-APC eBM2a, eBioscience rat IgG2b κ-PE eB149) at 1:200 dilutions.
We tested two epigenetic modifiers on an IRF2low, MHC I low murine cancer cell line (F221 MCA-sarcoma). F221 murine sarcoma cells were treated with Vorinostat (1 uM or 5 uM), Decitabine (5 uM), or control diluent (DMSO) with no drug for 24 hrs and then assayed for IRF2 and TAP2 mRNA levels by qPCR and MHC I protein levels by flow cytometry.
In addition, F221 MCA-sarcoma cells were treated with a combination of Vorinostat (5 uM) and/or Decitabine (5 uM) for 24 hrs and then surface expression of MEW I molecules were quantified by flow cytometry.

Question: “IFNγ: interferon gamma used to stimulate cells (mouse IFNγ 2 ng/mL for DC3.2)” was tested. Which “surface MHC-I expression in the IRF2-KO DC3.2” value ([1]; overnight incubation with 2 ng/mL IFNγ) did it give?
Answer: restored

Question: And the “surface MHC-I expression” value [2]?
Answer: augmented

Question: What about the “surface PD-L1 expression” value [3] of the same molecule?
Answer: augmented

Question: And the “IRF1 binding to the PD-L1 promoter” value [4]?
Answer: increased IRF1 binding

Question: And the “IRF2 binding to the PD-L1 promoter” value [4]?
Answer: decreased IRF2 binding

Question: Which “expression of IRF2 mRNA” value [5] does the source give for `O=C(CCCCCCC(=O)Nc1ccccc1)NO` [Vorinostat, Suberoylanilide hydroxamic acid] here?
Answer: increased

Question: And the “mRNA for IRF2's target gene, TAP2” value [6]?
Answer: increased

Question: And the “surface MHC I (H-2Kb) protein levels” value [7]?
Answer: increased

Question: IFNα was tested. Which “surface MHC-I expression in the IRF2-KO DC3.2” value ([1]; overnight incubation with 5,000 U/mL IFNα) did it give?
Answer: restored
